# Measured values published in patent US20250319032A1, “PHARMACEUTICAL COMPOSITIONS OF RIBOCICLIB” (Novartis AG, priority 2024, published 2025).
# “And” between values parts separate entries of the source, which are not always exact repeats. Equal entries are not always repeated.
# How the values were obtained:
# [1] = Drug product stability (film-coated tablets, tablet cores, blends, binary mixtures): content of DMP433 on storage; assay type: physicochemical
# Description: The experiments were packed in aluminium bags.
# Blends and compressed (compacted) mixtures of drug substance with the excipients crospovidone (Type A) and microcrystalline cellulose with standard and low nitrite content, and low substituted hydroxypropyl cellulose (L-HPC) from the drug product composition were subjected to accelerated storage conditions (40° C. and 50° C.) for periods up to 1 month. […]
# Binary mixtures were prepared in the same portion as present in the formulation. The samples were packed in alu bags. […]
# 2.8. Sample solution-ribociclib FCT (KISQALI®) • 1. Grind and homogenize 10 tablets (IKA mill can be used). • 2. Into a 10 mL amber volumetric flask accurately about 180 mg of tablet powder (corresponding to 80 mg of ribociclib free base). • 3. Add solvent (50% MeOH) up to ⅔ of flask volume. Vortex the sample for 1 minute and shake on a mechanical shaker for at least 15 min. Fill to volume with solvent and use vortex for 1 minute. • 4. Filter through 0.2 μm PVDF or PTFE filter into a HPLC amber vial, discard the first 0.5 mL. […]
# The content of DMP433 was analysed. […]
# [2] = Validation of the HPLC-HRMS method for N-nitroso-ribociclib (precision, accuracy, linearity, LOQ, stability of standard and sample solutions)
# Description: For the purpose of this validation only, the 100% target limit was set at 3.75 ppm (1500 ng NRR/400 mg ribociclib free base).
# Six replicates of the “Sample solution” were prepared according to the procedure described above and tested on the same day. The results are expressed as ppm of NNR with regard to ribociclib free base (μg NNR/g ribociclib free base)
# Two series of six replicates of the “Sample solutions” were prepared according to the procedure described above and tested by two different analysts, on two different days, using different LC/MS systems and different columns. The results are expressed as ppm of NNR with regard to ribociclib free base (μg NNR/g ribociclib free base)
# Three replicates of calibration standard solutions L1 (c=0.5 ng/ml) and L6 (c=100 ng/ml) were prepared according to the procedure described above. Solutions were stored in the dark at room temperature (autosampler (AS) vials). After a period of time, the solutions were reanalyzed. The stability of standard solutions is evaluated by determining the relative difference between the responses […] The results are expressed as concentration in ng/ml, determined from calibration curve in each sequence (time point).
# Three replicates of Sample solution were prepared according to AP. The replicates were analysed at t=0 h and after app. 24 hours and 48 hours of storage in vials AS at room temperature. The results are expressed as ppm of NNR wrt ribociclib free base. (μg NNR/g ribociclib free base).
# In addition, FCT samples stored in flasks on the bench were filtered at defined time point and analysed. For 48 hours stability, composite samples (from Accuracy) were used.
# Sample solutions were prepare according to the procedure described above using 10 mL, 25 mL and 50 mL flasks, three replicates for each volume. Results for 25 mL and 50 mL were compared to 10 mL volume that is prescribed in the AP. The results are expressed as ppm of NNR with regard to ribociclib free base (μg NNR/g ribociclib free base)
# For ribociclib FCT, one composite sample preparation and three replicates of spiked composite sample solutions (prepared as described above) were prepared and tested on the same day.
# The samples (drug substance or composite sample) were spiked at 0.5 ng/ml (0.0625 ppm), 30 ng/mlL (3.75 ppm) and 100 ng/ml (12.5 ppm) levels. Amount of NNR present in the unspiked sample was subtracted and recoveries were calculated as a ratio between amounts found and amounts added.
# In each sequence, calibration solution L1 was injected six times as part of SST test (Repeatability of injections) and the average response was taken for the calculation of calibration curve. Linear regression was weighed with 1/amount.
# Amount of NNR present in the unspiked sample was subtracted (see above) and RSD of corrected amounts calculated.
# [3] = NDMA content in LEE011-B12 (IP) after ion exchange resin treatment (option 2 process); assay type: physicochemical; settings: (n.d.)
# [4] = DMP433 (N-nitroso-ribociclib) content in ribociclib base (B10) and ribociclib succinate (B12, drug substance) batches and process experiments, LC-MS/MS or HPLC-HRMS; assay type: physicochemical; settings: for DMP433 in LEE011-B12 (IP): B10 Raybow batch 805193A078
# From the text: The method of testing for the presence and/or total amount of nitrosamines (such as the presence and/or total amount of N-nitroso-ribociclib in free or salt form) that is used in the methods of the invention may be any method which allows for the detection of nitrosamines in a composition. For example, the method may involve the Griess test described above. In such a method, the nitrosamines may be first denitrosated (e.g., by photolysis) to form a nitrite, which is then detected in the Griess test. Alternatively, the method may include high performance liquid chromatography (HPLC)- and/or gas chromatography (GC)-mass spectroscopy. An example of a method of testing for the presence and amount of nitrosamines (namely N-nitroso-ribociclib) is provided herein as Example 14. […]
# 2.7. […] Dissolve the substance using vortex and fill to volume with solvent (50% MeOH). • 3. Filter through 0.2 μm PVDF (polyvinylidene difluoride) or PTFE (polytetrafluoroethylene) filter into a HPLC amber vial, discard the first 0.5 ml.
# A calibration curve for DMP433 is created, using calibration standard solutions L1-L6, and expressing the relationship between responses (peak areas) and standard concentrations (ng/ml). For L1, the average of 6 injections is used. Linear regression is weighed with 1/amount. […]
# [5] = Nitrite content (ion chromatography; LC-FLD with DAN derivatisation; Griess test) in drug substance, intermediates, reagents, solvents, filters, excipients; assay type: physicochemical; settings: Raybow batch 805193A078, starting material of resin loading experiments
# Outline: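 Nitrite measured by Griess reaction (sulfanilamide diazotisation, N-(1-naphthyl)ethylenediamine azo coupling, spectrophotometric read) or by DAN derivatisation with C18 HPLC-fluorescence (10 mM KH2PO4 pH 8.0/methanol). About 1000 mg sample in 10 mL methanol/water 1:1; comparison standard ≈100 ppb nitrite.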
# [6] = DSC, heating rate 10 ° C./min (with pinhole), cited from earlier work
structure (smiles),measurement,setting,value
CN(C)C(=O)c1cc2cnc(Nc3ccc(N4CCNCC4)cn3)nc2n1C1CCCC1.O=C(O)CCC(=O)O [DS (B699003AA) (compact)],DMP433 content,"[1]; T0, binary mixtures/blends/compacts, alu bags",0.7 ppm
same,DMP433 content,"[1]; T 1 m (50° C./75% RH), alu bags",1.1 ppm
same,DMP433 content,"[1]; T 2 w (40° C./75% RH), alu bags",0.9 ppm
same,DMP433 content,"[1]; T 2 w (50° C./75% RH), alu bags",0.8 ppm
CN(C)C(=O)c1cc2cnc(Nc3ccc(N4CCNCC4)cn3)nc2n1C1CCCC1.O=C(O)CCC(=O)O [DS (B699003AA) compact],DMP433 content,"[1]; binary studies of drug substance with excipients, T0",0.7 ppm
same,DMP433 content,"[1]; binary studies, 40° C., T 2 Weeks",0.9 ppm
same,DMP433 content,"[1]; binary studies, 50° C., T 1 Month",1.1 ppm
same,DMP433 content,"[1]; binary studies, 50° C., T 2 Weeks",0.8 ppm
CN(C)C(=O)c1cc2cnc(Nc3ccc(N4CCNCC4)cn3)nc2n1C1CCCC1.O=C(O)CCC(=O)O [Ribociclib Succinate Drug Substance],NNR Amount found (ppm),"[2]; level S0, unspiked",0.3328 ppm and 0.3246 ppm and 0.3256 ppm
same,NNR Amount found (ppm),"[2]; level S1, spiked 0.0625 ppm",0.3754 ppm and 0.3778 ppm and 0.3796 ppm and 0.3774 ppm and 0.3781 ppm and 0.3824 ppm
same,NNR Amount found (ppm),"[2]; level S2, spiked 3.75 ppm",3.5823 ppm and 3.7302 ppm and 3.8822 ppm
same,NNR Amount found (ppm),"[2]; level S3, spiked 12.5 ppm",11.0295 ppm and 11.6248 ppm and 11.8859 ppm
CN(C)C(=O)c1cc2cnc(Nc3ccc(N4CCNCC4)cn3)nc2n1C1CCCC1.O=C(O)CCC(=O)O [Ribociclib succinate],NDMA in LEE011-B12 (IP),[3]; resin loading vs B10 20 w/w %,<100 ppb
same,NDMA in LEE011-B12 (IP),[3]; resin loading vs B10 50 w/w %,<100 ppb
same,NDMA in LEE011-B12 (IP),[3]; resin loading vs B10 100 w/w %,<100 ppb
same,depletion of DMP433 in the ribociclib succinate (B12) crystal by additional washing,[4]; 3 washes vs 2 washes of isopropanol,about 38%
same,DMP433 in LEE011-B12 (IP),"[4]; resin loading vs B10 20 w/w %, option 2 process",220 ppb
same,DMP433 in LEE011-B12 (IP),"[4]; resin loading vs B10 50 w/w %, wet cake",211 ppb
same,DMP433 in LEE011-B12 (IP),"[4]; resin loading vs B10 100 w/w %, wet cake",238 ppb
"CN(C)C(=O)c1cc2cnc(Nc3ccc(N4CCNCC4)cn3)nc2n1C1CCCC1 [Ribociclib, 7-cyclopentyl-N, N-dimethyl-2-{[5-(piperazin-1-yl)pyridin-2-yl]amino}-7H-pyrrolo[2,3-d]pyrimidine-6-carboxamide]",Nitrite in LEE011-B10,[5],257 ppb
same,DMP433 in LEE011-B10,"[4]; Raybow batch 805193A078, starting material of resin loading experiments",92 ppb
same,"DMP433, best result","[4]; isopropanol distilled over ascorbic acid, B10 added last",0.34 ppm
CN(C)C(=O)c1cc2cnc(Nc3ccc(N4CCNCC4)cn3)nc2n1C1CCCC1.O=C(O)CCC(=O)O [ribociclib succinate Form E],Endothermic onset,[6],210.0 °C
same,Enthalpy,"[6]; melting/decomposition, for information only",194.8 J/g
CN(C)C(=O)c1cc2cnc(Nc3ccc(N4CCNCC4)cn3)nc2n1C1CCCC1.O=C(O)CCC(=O)O [ribociclib succinate drug substance],"NNR Average (ppm), Ruggedness",[2]; n = 6,0.241 ppm
same,NNR Total average (ppm),"[2]; n = 12, intermediate precision",0.240 ppm
same,"NNR (ppm), Ruggedness, single replicate","[2]; second analyst, day, LC/MS system and column, replicates R1-R6",0.287 ppm and 0.243 ppm and 0.244 ppm and 0.176 ppm and 0.262 ppm and 0.235 ppm
